Data from patent US10508120B2, “TYK2 inhibitors and uses thereof” (Nimbus Lakshmi, Inc., priority 2017, dated 2019).
Like-named read-outs stand apart in the source and are kept apart here.

What was measured:
[1] = target: human TYK2 (JH2domain-pseudokinase) (Homo sapiens (Human), UniProt P29597); test: TYK2 JH2 Domain Binding Assay (KINOMEscan)
Summary of the method: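 Kds, run in duplicate, came from Hill fits (slope fixed at −1) of an 11-point 3-fold dilution series starting at 30,000 nM. Bead-retained TYK2 JH2 (aa G556–D888)–NFkB DBD fusion, DNA-tagged and expressed in HEK293 cells, was read by qPCR after 1 h room-temperature binding in 0.9% DMSO.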

Tyk2 kinase domain (DH1) = Tyk2 kinase domain (DH1) (Homo sapiens (Human), UniProt P29597); test: Tyk2 Radioactive Kinase Assay; format: biochemical; details: for inhibition at 10 µM: read-out: Tyk2 JH1% Inhibition @ 10 μM
Chain of Tyk2 kinase domain (DH1) (P29597 897-1176): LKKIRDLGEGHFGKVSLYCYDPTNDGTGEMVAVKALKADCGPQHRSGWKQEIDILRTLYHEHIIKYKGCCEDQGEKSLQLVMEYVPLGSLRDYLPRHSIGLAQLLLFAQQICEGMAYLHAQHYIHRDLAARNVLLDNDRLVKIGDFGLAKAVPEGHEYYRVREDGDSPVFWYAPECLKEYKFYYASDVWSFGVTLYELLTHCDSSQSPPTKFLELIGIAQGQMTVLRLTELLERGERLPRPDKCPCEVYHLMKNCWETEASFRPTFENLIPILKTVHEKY
Summary of the method: (§1)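 Values are single-concentration percent inhibition figures. They were obtained with 10 μM compound in a radioactivity-based kinase assay run separately on each enzyme.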

JAK2 kinase domain (JH1) = JAK2 kinase domain (JH1) (Homo sapiens (Human), UniProt O60674); test: JAK2 Radioactive Kinase Assay; format: biochemical; details: for inhibition at 10 µM: read-out: JAK2 JH1% Inhibition @ 10 μM
Chain of JAK2 kinase domain (JH1) (O60674 849-1124): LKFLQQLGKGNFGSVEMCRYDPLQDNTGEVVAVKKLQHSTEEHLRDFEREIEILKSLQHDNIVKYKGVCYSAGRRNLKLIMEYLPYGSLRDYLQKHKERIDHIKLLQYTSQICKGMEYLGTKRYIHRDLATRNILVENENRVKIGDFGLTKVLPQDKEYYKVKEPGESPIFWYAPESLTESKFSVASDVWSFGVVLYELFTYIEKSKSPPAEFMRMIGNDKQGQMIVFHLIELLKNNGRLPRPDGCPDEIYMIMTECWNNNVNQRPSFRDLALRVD
Summary of the method: as §1

Chain of human TYK2 (JH2domain-pseudokinase) (P29597 556-888): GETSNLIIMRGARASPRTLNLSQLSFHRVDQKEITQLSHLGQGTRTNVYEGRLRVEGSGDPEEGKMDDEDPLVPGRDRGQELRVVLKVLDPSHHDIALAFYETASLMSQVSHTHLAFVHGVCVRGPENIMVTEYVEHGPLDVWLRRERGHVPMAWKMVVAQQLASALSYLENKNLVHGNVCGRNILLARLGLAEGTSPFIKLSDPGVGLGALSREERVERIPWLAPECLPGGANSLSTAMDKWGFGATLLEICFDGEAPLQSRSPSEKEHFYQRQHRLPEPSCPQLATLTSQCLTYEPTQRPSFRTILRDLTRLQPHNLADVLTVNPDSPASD

Structure (SMILES) | Kd [1] [nM] | inhibition at 10 µM (Tyk2 kinase domain (DH1); compound at 10 μM, ATP 10 μM) [%] | inhibition at 10 µM (JAK2 kinase domain (JH1); compound at 10 μM, ATP 10 μM) [%] | inhibition at 10 µM (Tyk2 kinase domain (DH1); 10 μM compound, 10 μM ATP) [%] | inhibition at 10 µM (JAK2 kinase domain (JH1); 10 μM compound, 10 μM ATP) [%] | Tyk2 JH1% Inhibition @ 10 μM (Tyk2 kinase domain (DH1); compound at 10 μM, ATP 10 μM) | JAK2 JH1% Inhibition @ 10 μM (JAK2 kinase domain (JH1); compound at 10 μM, ATP 10 μM)
CC(C)(O)c1cccc(-n2cccc(Nc3cc(N)n4ncc(C(N)=O)c4n3)c2=O)n1 [I-41] | 1 to 10 | < 50 | < 50 | – | – | – | –
Cc1c(Nc2cccnc2OC(C)C)nc2c(C(=O)NC3CCC3)cnn2c1N [I-208, 7-amino-N-cyclobutyl-5-((2-isopropoxypyridin-3-yl)amino)-6-methyl pyrazolo[1,5-a]pyrimidine-3-carboxamide] | 1 to 10 | < 50 | < 50 | – | – | – | –
CNc1cc(Nc2cccc([C@H]3CCCCO3)n2)nc2c(C(=O)N[C@@H]3CC[C@@H]3O)cnn12 [I-611] | < 0.2 | < 50 | < 50 | – | – | – | –
CNc1cc(Nc2cccn(-c3cc(C)on3)c2=O)nc2c(C(=O)NC3COC3)cnn12 [I-104] | 1 to 10 | < 50 | < 50 | – | – | – | –
CNc1cc(-c2nn(C3CCOCC3)c3ncccc23)nc2c(C(=O)N[C@@H]3C[C@@H]3F)cnn12 (stereo in doubt) [I-450, N-((1R,2S)-2-fluorocyclopropyl)-7-(methylamino)-5-(1-(tetrahydro-2H-pyran-4-yl)-1H-pyrazolo[3,4-b]pyridin-3-yl)pyrazolo[1,5-a]pyrimidine-3-carboxamide] | 0.2 to 1 | < 50 | < 50 | – | – | – | –
CNc1cc(Nc2cccn(-c3ccccn3)c2=O)nc2c(C(=O)N[C@@H]3CC[C@H]3O)cnn12 [I-972] | 0.2 to 1 | – | – | < 50 | < 50 | – | –
CNc1cc(-c2cn(C(C)C)c3ncccc23)nc2c(C(=O)N[C@H]3COC[C@H]3O)cnn12 (stereo in doubt) [I-764, N-(4-hydroxytetrahydrofuran-3-yl)-5-(1-isopropyl-1H-pyrrolo[2,3-b]pyridin-3-yl)-7-(methylamino)pyrazolo[1,5-a]pyrimidine-3-carboxamide] | < 0.2 | < 50 | < 50 | – | – | – | –
CNc1cc(Nc2cccc([C@@H]3CCCOC3)n2)nc2c(C(=O)NC3CC3)cnn12 [I-548] | < 0.2 | < 50 | 50 to 70 | – | – | – | –
CNc1cc(Nc2cccnc2O[C@H]2C[C@H](OC)C2)nc2c(C(=O)NC3CCC3)cnn12 [I-187] | < 0.2 | < 50 | < 50 | – | – | – | –
CNc1cc(Nc2cccc(N3CC4(CCO4)C3)n2)nc2c(C(=O)N[C@H]3C[C@H]3F)cnn12 [I-619] | < 0.2 | < 50 | < 50 | – | – | – | –
CNc1cc(Nc2cccn(-c3ccccc3F)c2=O)nc2c(C(=O)N[C@@H]3CC[C@H]3O)cnn12 [I-1039] | < 0.2 | – | – | < 50 | < 50 | – | –
CNc1cc(Nc2cccn(C3CCCN(C)C3)c2=O)nc2c(C(=O)NC3CC3)cnn12 (stereo not drawn) [I-471] | 0.2 to 1 | < 50 | < 50 | – | – | – | –
CNc1cc(Nc2cc(F)cn([C@H]3CCCOC3)c2=O)nc2c(C(=O)NC3CC3)cnn12 [I-534] | 0.2 to 1 | < 50 | < 50 | – | – | – | –
CNc1cc(Nc2cccn(-c3nccs3)c2=O)nc2c(C(=O)NC3CCC3)cnn12 [I-242] | < 0.2 | < 50 | < 50 | – | – | – | –
[2H]C([2H])([2H])Oc1ncc(F)cc1Nc1cc(NC)n2ncc(C(=O)N[C@H]3C[C@H]3F)c2n1 [I-289] | < 0.2 | < 50 | < 50 | – | – | – | –
CNc1cc(Nc2cccn(-c3cccc(F)c3)c2=O)nc2c(C(=O)N[C@H]3CC[C@@H]3O)cnn12 [I-1024] | < 0.2 | – | – | < 50 | < 50 | – | –
CNc1cc(Nc2cccc([C@@H]3CCCOC3)n2)nc2c(C(=O)N[C@@H]3CC[C@@H]3O)cnn12 [I-605] | < 0.2 | < 50 | < 50 | – | – | – | –
CO[C@H]1C[C@H](Oc2ncc(Cl)cc2Nc2cc(N)n3ncc(C(N)=O)c3n2)C1 [I-119] | 1 to 10 | < 50 | < 50 | – | – | – | –
CNc1cc(Nc2cccc([C@@H]3CCCOC3)n2)nc2c(C(=O)N[C@@H]3CC[C@@H]3O)cnn12 [I-643] | 0.2 to 1 | – | – | – | – | A (percent inhibition at 10 μM lower than 50) | A (percent inhibition at 10 μM lower than 50)
CNc1cc(-c2cn(CCN3CCN(C)CC3)c3ncccc23)nc2c(C(=O)N[C@@H]3CC[C@H]3O)cnn12 [I-921, N-((1R,2R)-2-hydroxycyclobutyl)-7-(methylamino)-5-(1-(2-(4-methylpiperazin-1-yl)ethyl)-1H-pyrrolo[2,3-b]pyridin-3-yl)pyrazolo[1,5-a]pyrimidine-3-carboxamide] | 0.2 to 1 | – | – | < 50 | < 50 | – | –
CNc1cc(Nc2cccn(C3CCCOC3)c2=O)nc2c(C(=O)NC3CC3)cnn12 (stereo not drawn) [I-313] | < 0.2 | < 50 | < 50 | – | – | – | –

Structure (SMILES) | Kd [1] [nM] | inhibition at 10 µM (Tyk2 kinase domain (DH1); compound at 10 μM, ATP 10 μM) [%] | inhibition at 10 µM (JAK2 kinase domain (JH1); compound at 10 μM, ATP 10 μM) [%] | inhibition at 10 µM (Tyk2 kinase domain (DH1); 10 μM compound, 10 μM ATP) [%] | inhibition at 10 µM (JAK2 kinase domain (JH1); 10 μM compound, 10 μM ATP) [%] | Tyk2 JH1% Inhibition @ 10 μM (Tyk2 kinase domain (DH1); compound at 10 μM, ATP 10 μM) | JAK2 JH1% Inhibition @ 10 μM (JAK2 kinase domain (JH1); compound at 10 μM, ATP 10 μM)
CNc1cc(Nc2cccnc2C(C)(F)F)nc2c(C(=O)N[C@H]3C[C@H]3F)cnn12 [I-300] | 0.2 to 1 | < 50 | < 50 | – | – | – | –
CNc1cc(Nc2cccn(-c3ccon3)c2=O)nc2c(C(N)=O)cnn12 [I-43, 5-((1-(isoxazol-3-yl)-2-oxo-1,2-dihydropyridin-3-yl)amino)-7-(methylamino)pyrazolo[1,5-a]pyrimidine-3-carboxamide] | < 0.2 | < 50 | < 50 | – | – | – | –
CNc1cc(Nc2ccnn(-c3ccc(F)cc3)c2=O)nc2c(C(=O)N[C@H]3C[C@H]3F)cnn12 [I-134] | 0.2 to 1 | < 50 | < 50 | – | – | – | –
CNc1cc(Nc2cccn(CC3CCCCO3)c2=O)nc2c(C(=O)NC3CC3)cnn12 (stereo not drawn) [I-364] | < 0.2 | < 50 | < 50 | – | – | – | –
CNc1cc(Nc2cccn([C@H]3CCCOC3)c2=O)nc2c(C(=O)N[C@H]3COC[C@H]3O)cnn12 [I-753] | 0.2 to 1 | < 50 | < 50 | – | – | – | –
CNc1cc(Nc2ccc3c(n2)OCCO3)nc2c(C(=O)NC3CC3)cnn12 [I-531] | 0.2 to 1 | < 50 | < 50 | – | – | – | –
CNc1cc(Nc2cccn([C@@H]3CCOC3)c2=O)nc2c(C(=O)NC3CCC3)cnn12 [I-204] | 0.2 to 1 | < 50 | < 50 | – | – | – | –
CNc1cc(-c2cn(CCN3CCCCC3)c3ncccc23)nc2c(C(=O)N[C@H]3CC[C@@H]3O)cnn12 [I-838] | < 0.2 | – | – | < 50 | < 50 | – | –
CNc1cc(Nc2cccn([C@H]3CCCOC3)c2=O)nc2c(C(=O)N[C@@H]3CC[C@@H]3O)cnn12 [I-696] | < 0.2 | < 50 | < 50 | – | – | – | –
CNc1cc(Nc2cccnc2OC2CC2)nc2c(C(=O)N[C@H]3C[C@H](O)C3)cnn12 [I-320, 5-((2-cyclopropoxypyridin-3-yl)amino)-N-((1r, 3r)-3-hydroxycyclobutyl)-7-(methylamino)pyrazolo[1,5-a]pyrimidine-3-carboxamide] | < 0.2 | < 50 | 50 to 70 | – | – | – | –
CNc1cc(Nc2cc(F)cnc2OCCOC)nc2c(C(=O)NC3CC3)cnn12 [I-286] | 0.2 to 1 | < 50 | < 50 | – | – | – | –
CNc1cc(Nc2cccnc2OC)nc2c(C(=O)N[C@@H]3COC[C@@H]3O)cnn12 [I-614] | 1 to 10 | < 50 | < 50 | – | – | – | –
CNc1cc(Nc2cc(Cl)cn(-c3ncc(C)s3)c2=O)nc2c(C(=O)NC3CC3)cnn12 [I-322] | 0.2 to 1 | < 50 | < 50 | – | – | – | –
CNc1cc(-c2cn(CCN3CCOCC3)c3ncccc23)nc2c(C(=O)N[C@@H]3CC[C@H]3O)cnn12 [I-792, N-(2-hydroycyclobutyl)-7-(methylamino)-5-(1-(2-morpholinoethyl)-1H-pyrrolo[2,3-b]pyridine-3-yl)pyrazolo[1,5-a]pyrimidine-3-carboxamide] | < 0.2 | < 50 | < 50 | – | – | – | –
CNc1cc(Nc2ccc3c(n2)CCO3)nc2c(C(=O)NC3CC3)cnn12 [I-631] | 0.2 to 1 | < 50 | < 50 | – | – | – | –
CNc1cc(Nc2cc(Cl)cnc2OC2CCC2)nc2c(C(=O)NC3COC3)cnn12 [I-93, 5-((5-chloro-2-cyclobutoxypyridin-3-yl)amino)-7-(methylamino)-N-(oxetan-3-yl)pyrazolo[1,5-a]pyrimidine-3-carboxamide] | > 10 | < 50 | < 50 | – | – | – | –
NC(=O)c1cnn2c(N)cc(Nc3cc(Cl)cnc3OC3CCOC3)nc12 (stereo not drawn) [I-82, 7-amino-5-((5-chloro-2-((tetrahydrofuran-3-yl)oxy)pyridin-3-yl)amino) pyrazolo[1,5-a]pyrimidine-3-carboxamide] | 1 to 10 | < 50 | < 50 | – | – | – | –
CNc1cc(Nc2cc(C)cnc2OC(C)C)nc2c(C(=O)NC3CC3)cnn12 [I-212] | 0.2 to 1 | < 50 | < 50 | – | – | – | –
CNc1cc(Nc2cccnc2OC2CC2)nc2c(C(=O)N[C@@H]3COC[C@@H]3O)cnn12 [I-546] | 1 to 10 | < 50 | < 50 | – | – | – | –
CNc1cc(-c2cn(CCN3CCOCC3)c3ncccc23)nc2c(C(=O)N[C@@H]3CC[C@@H]3O)cnn12 [I-678] | 0.2 to 1 | < 50 | < 50 | – | – | – | –
